“Also recorded” adds a separate entry of the source. [np] = N3'→P5' phosphoramidate
Experiments:
[1] = test system: dA10:dT10 duplex region of the hairpin DNA target d(A10 C4 T10); assay: Triplex melting with hairpin DNA target d(A10 C4 T10); assay type: binding
Method: Melting curves were obtained for triplexes formed by the decathymidilic phosphoramidate […] and the dA10 :dT10 duplex region of the hairpin DNA target d(A10 C4 T10) (FIG. 3, experiment 7).
(§1) Triplex thermal stabilities were evaluated essentially as described above for duplexes.
FIGS. 7A to 7D present exemplary triplex melting curves. FIGS. 7A and 7C present normalized absorbance at 260 nm plotted against temperature. FIGS. 7B and 7D present normalized absorbance at 284 nm plotted against temperature. In the figures: the triplexes formed by double stranded DNA and phosphoramidate Oligonucleotide 3 correspond to the black circle line; triplexes formed with phosphodiester Oligonucleotide 1 correspond to open squares line).
The data correspond to FIG. 3, experiment 7 where curves (A) and (C) were thermal stability studies performed using buffers A and B, respectively, with hyperchromicity monitored at 260 nm. Curves (B) and (D) are (A) and (C) respectively, but where hyperchromicity was monitored at 284 nm.

[2] = test system: 24-mer hairpin target d(A10 C4 T10); assay: Gel band mobility shift assay, 24-mer hairpin target; assay type: binding; details: native conditions, 10 mM MgCl2, 80 mM Tris-borate, pH 8.2, 10° C.
Method: Triplex structures were further evaluated using gel band mobility shift assays.
Gel band mobility shift assay conditions were as follows: 20% acrylamide, 5% bisacrylamide in 10 mM MgCl2, 80 mM Tris-borate buffer, pH 8.2, 10° C. Gels were typically run under native (non-denaturing) conditions. In the figure the lanes are as follows: 1--10-mer phosphodiester Oligonucleotide 1; 2--10-mer phosphoramidate Oligonucleotide 3; 3--24-mer hairpin target d(A10 C4 T10) (FIG. 3, experiment 7).
The gel was stained with STAINS-ALL™ (Kodak, Rochester N.Y.) and imaged on a Molecular Dynamics (Sunnyvale, Calif.) densitometer.

[3] = test system: complementary RNA strand; assay: Thermal dissociation of duplexes with complementary RNA strand; assay type: binding
Method: (§2) The hybridization properties of the phosphoramidate analogs were evaluated relative to complementary DNA or RNA strands having standard phosphodiester intersubunit linkages. The thermal stability data for duplexes generated from phosphoramidate analogs and phosphodiester oligomers are summarized in FIG. 3 (Example 1).
(§3) The same trend is true for the mixed-base undecanucleotide 6 (FIG. 3), where the Tm 's of duplexes with complementary DNA and RNA strands were 49.2° C. and 72.4° C., respectively, (FIG. 3, experiments 13, 14).
Thermal dissociation curves were obtained using a Carry IE spectrophotometer (Varian, Palo Alto, Calif.) that was equipped with a temperature controller (Varian). The reaction solutions contained equivalent concentrations of oligomer and complement (approximately 6 μM in oligomer strand) in 15 mM phosphate buffer at pH 7.05, with NaCl added to give a total Na+ concentration of 100 mM.
(§4) The molar extinction coefficients used for oligo(dT), poly(dA) and poly(A) were 8.2, 8.4, and 10.2 A260 ×10^3, respectively. An extinction coefficient of 109 A260 Units/μM was used for the mixed-based oligomers--the extinction coefficient was calculated from the table compiled by P. N. Borer (1975).
(§5) Reaction solutions were equilibrated at 0° C. and the absorbance at 260 nm was followed as the temperature was increased in increments of 3° C. per 5 minutes. The fraction of an oligomer in the bound state, α,at a given temperature was determined by use of upper and lower base lines as described by Abergo, et al. (1981). Tm values are defined as the temperature at which α=0.5. Plots of Ink (Marky, et al., 1987) versus 1/T were linear for these compounds.
In the table, Tm is the temperature at the midpoint of the melting curve; np is the abbreviation for the 3'--NHP(O)(O^-)0-5' phosphoramidate link.
The concentrations of oligonucleotides were typically at 5 μM oligomer strands. Buffer A (10 mM Tris HCl, 150 mM NaCl, pH 7.02) was used for duplex thermal stability studies.

[4] = test system: single mismatch RNA target; assay: Thermal dissociation of duplexes with single mismatch RNA target; assay type: binding; details: mismatch discrimination
Method: Hybridization of the phosphoramidate oligonucleotides with complementary nucleic acids is sequence specific and determined by the proper Watson-Crick base pairing.
Reaction solutions were equilibrated at 0° C. and the absorbance at 260 nm was followed as the temperature was increased in increments of 3° C. per 5 minutes. […] Tm values are defined as the temperature at which α=0.5.

[5] = test system: HL60 cells; assay: Leukemic cell proliferation / cytotoxicity, HL60 cells (no BCR/ABL breakpoint); assay type: cell-based
Method: (§6) N3'→P5' phosphoramidate linkage containing anti-sense oligonucleotides were synthesized which were complementary to the BCR/ABL fusion junction (B2A2) in leukemic cell line BV173. The following assay measures leukemic cell proliferation and is performed essentially as described by Anfossi, et al. (1989).
(§7) Briefly, FIG. 10 illustrates the effect of BCR-ABL oligomers on leukemic cell proliferation of BV173 cells carrying the B2A2-type break points. BV173 is a leukemic cell line with the B2A2 BCR/ABL fusion junction (Pegoraro, et al., 1983). HL60 is a promyelocytic leukemic cell line with a normal c-abl locus (Collins, et al., 1977). K562 is a leukemic cell line with the B3A2 BCR/ABL fusion junction (Seelig, et al., 1993).
(§8) Cells (5×10^4) were placed in 0.2 ml of liquid suspension culture (Iscove's modified Dulbecco's modified medium with 2% human AB serum--Life Technologies, Gaithersburg, Md.).
(§9) The oligonucleotides were administered to the cultures at 24 hour intervals for three days (days 0, 1 and 2) to achieve the incremental concentrations shown in the legends of FIGS. 10-19 (all concentrations in μg/mL), for example, FIG. 10--40/20/20; 20/10/10; 10/5/5; and 5/2.5/2.5. Note that, for example, 40/20/20 reflects a final total concentration of 80 μg/ml in the cell culture medium after the last oligonucleotide addition. Cell counts were performed by standard methods.

[6] = test system: BV173 cells; assay: Leukemic cell proliferation, BV173 cells (B2A2 BCR/ABL fusion junction); details: for shape of inhibition curves at later time points after partial release of inhibition: FIGS. 14 and 18; for inhibition of BV173 leukemia cell growth relative to phosphoramidate oligonucleotide 6: comparable concentrations
[7] = test system: complementary DNA strand; assay: Thermal dissociation of duplexes with complementary DNA strand; assay type: binding
Method: as §2, §3
Thermal dissociation curves were obtained using a Carry IE spectrophotometer (Varian, Palo Alto, Calif.) that was equipped with a temperature controller (Varian). […]
as §4
as §5, with “Tm values are defined as the temperature at which α=0.5. Plots of Ink (Marky, et al., 1987) versus 1/T were linear for these compounds.” left out

[8] = test system: 26-mer hairpin target (SEQ ID NO:22); assay: Gel band mobility shift assay, 26-mer hairpin target; assay type: binding; details: native conditions, essentially as for Oligonucleotide 3
Description: The conditions of the gel band mobility shift assay were essentially as described above.

[9] = test system: K562 cells; assay: Leukemic cell proliferation / cytotoxicity, K562 cells (B3A2 BCR/ABL fusion junction); assay type: cell-based; details: FIG. 15
Method: as §6, §7, §8, §9

[10] = Thermal dissociation of oligonucleotide hairpin duplexes; assay type: physicochemical
Method: Experiments were also performed to evaluate the stability of duplexes formed by oligonucleotides containing phosphoramidate linkages in both complementary strands.
The stability of duplexes formed by oligonucleotides containing phosphoramidate linkages in both complementary strands was evaluated essentially as described above.
All the molecules in FIG. 6 were constructed using 2'-deoxyribonucleotides.
as §1

[11] = test system: control cell lines; assay: Cytotoxicity of antisense oligonucleotides in leukemia cell culture; assay type: cell-based
Description: FIGS. 10 through 19 show the results of anti-sense oligonucleotides, having either phosphoramidate (N3'→P5') (FIGS. 10-15) or phosphorothioate (FIGS. 16-19) intersubunit linkages, on leukemia cell proliferation for different BCR-ABL leukemia cell lines and control cell lines.
as §6, §8, §9

[12] = versus Oligodeoxyribonucleotide 4

In the case of “phosphodiester decathymidilic acid [Oligonucleotide 1, reference compound]”, the “triplex formation judged by melting curves” value ([1]; buffers A and B, 260 and 284 nm) is reported as “no corresponding triplex was formed; also recorded: did not form triplexes” and the “triplex formation in gel band mobility shift assay” value [2] is reported as “no corresponding triplex was formed; also recorded: fails to form a triplex”.

For “Oligonucleotide 6: fully modified N3'→P5' phosphoramidate 11-mer complementary to the BCR-ABL junction B2A2 (antisense CTTCTTCCTTA; all [np], sugars by position and methylation of C not given here)”, the “Tm of duplex with complementary RNA strand” value ([3]; buffer A) was 72.4 °C, the “Tm increase relative to parent phosphodiester Oligodeoxyribonucleotide 4, RNA strand” value [3, 12] was 22.9 °C and the “duplex stability increase relative to homologous RNA oligomer 5, same RNA target” value ([3]; versus RNA oligomer 5) was 18.0 °C. For the same substance, the “ΔTm with single mismatch RNA target versus fully complementary” value [4] was -12.2 °C, the “cytotoxicity to HL60 cells” value [5] was “no apparent cytotoxicity; also recorded: negligible toxicity” and the “tolerance by HL60 cells” value ([5]; all concentrations (FIG. 11)) was “well tolerated by the cells”. The “shape of inhibition curves at later time points after partial release of inhibition” value [6] was “downward inflection at later time points”, the “inhibition of BV173 leukemia cell proliferation” value ([6]; all concentrations / FIG. 10 down to 5/2.5/2.5 μg/ml on days 0, 1, 2) was “extremely effective at inhibiting the growth of the leukemia cells” and the “inhibition of BV173 leukemia cell proliferation” value ([6]; lowest concentrations 0.3125/0.15625/0.15625 μg/mL (FIG. 12)) was “extremely effective at inhibiting leukemia cell proliferation”. For the same substance, the “Tm of duplex with complementary DNA strand” value ([7]; buffer A) was 49.2 °C, the “Tm increase relative to parent phosphodiester Oligodeoxyribonucleotide 4, DNA strand” value [7, 12] was 11.7 °C and the “triplex formation in gel band mobility shift assay” value [8] was “stable triplex formation; also recorded: confirmed by gel band mobility shift assay”. For the same substance, the Tm of triplex ([1]; close to physiological conditions (buffer A)) was 32 °C, the Tm of triplex ([1]; magnesium-containing buffer (buffer B)) was 42.2 °C and the “effect on proliferation of K562 cells / cytotoxicity” value [9] was “essentially no effect on the proliferation”.

In the case of “16mer phosphorothioate oligonucleotide (SEQ ID NO:27): 16mer phosphorothioate complementary to the B3A2 BCR/ABL fusion junction; 2 base pair mismatch to B2A2 (antisense GAGTTCAAAAGCCCTT; all phosphorothioate, sugars by position and methylation of C not given here)”, the “tolerance by BV173 cells” value ([6]; all concentrations (FIG. 17)) is reported as “tolerated by the cells”.

With d(A10 C4 T10) [hairpin duplex] the “Tm of the hairpin duplex” value ([10]; buffer A) was 55.7 °C and the “Tm of the hairpin duplex” value ([10]; buffer B (10 mM MgCl2)) was 61.5 °C.

In the case of “phosphorothioate 16-mer: oligonucleotide 16-mer having fully modified phosphorothioate intersubunit linkages, containing the SEQ ID NO:6 sequence (antisense AAGGGCTTCTTCCTTA; all phosphorothioate, sugars by position and methylation of C not given here)”, the “shape of inhibition curves at later time points after partial release of inhibition” value [6] is reported as “steep upward inflection at later time points”, the “concentrations of release of inhibition relative to phosphoramidate oligonucleotide 6” value ([6]; FIGS. 18 and 19) is reported as “much lower concentrations” and the “inhibition of BV173 leukemia cell growth relative to phosphoramidate oligonucleotide 6” value [6] is reported as “not effective at inhibiting BV173 leukemia cell proliferation”. The “inhibition of BV173 leukemia cell growth relative to phosphoramidate oligonucleotide 6” value ([6]; listed as 16-mer (SEQ ID NO:26)) was “not as effective as oligonucleotide 6” and the cytotoxicity [11] was “absence of cytotoxicity”.
